Experimental data as given in ChEMBL document CHEMBL4651402, “Screening of ~5500 FDA-approved drugs and clinical candidates for anti-SARS-CoV-2 activity” (2021).

Tested on: SARS-CoV-2
Assay: microbe, parasite or virus in culture
Conditions: Severe acute respiratory syndrome coronavirus 2, Vero C1008, 48 h

Row | SMILES | IC50 [µM] | IC50 (read-out: pIC50 (converted)) [µM]
1 | CC(=O)N(c1onc(C)c1C)S(=O)(=O)c1ccc(N)cc1 [SULFISOXAZOLE ACETYL] | > 20 | > 20
2 | Cc1noc(NS(=O)(=O)c2ccc(N)cc2)c1C [SULFISOXAZOLE] | > 20 | > 20
3 | CC(C)(C)NCC(O)c1ccc(O)c(CS(C)(=O)=O)c1 (configuration not stated) [SULFONTEROL] | > 20 | > 20
4 | COc1cc(O)c(C(=O)c2ccccc2)cc1S(=O)(=O)O [SULISOBENZONE] | > 20 | > 20
5 | COc1cc([S+](C)[O-])ccc1-c1nc2cccnc2[nH]1 (configuration not stated) [SULMAZOLE] | > 20 | > 20
6 | O=C(O)COc1ccc(CCNS(=O)(=O)c2ccccc2)cc1 [SULOTROBAN] | > 20 | > 20
7 | CCN1CCCC1CNC(=O)c1cc(S(N)(=O)=O)ccc1OC (configuration not stated) [SULPIRIDE] | > 20 | > 20
8 | CCN(CC)CCNC(=O)c1c(C)[nH]c(/C=C2\C(=O)Nc3ccc(F)cc32)c1C [SUNITINIB] | > 20 | > 20
9 | CC(C(=O)O)c1ccc(C(=O)c2cccs2)cc1 (configuration not stated) [SUPROFEN] | > 20 | > 20
10 | CCN(CC)CCNC(=O)N(CCS(=O)(=O)c1ccccc1)C(C)C [SURICAINIDE] | > 20 | > 20
11 | Cn1nc(-c2cccc(F)c2)n(C)c1=S [SURITOZOLE] | > 20 | > 20
12 | OC1CCCc2nc3ccccc3c(NCc3ccccc3)c21 (configuration not stated) [SURONACRINE] | > 20 | > 20
13 | Cc1ccc(-n2nccn2)c(C(=O)N2CCN(c3nc4cc(Cl)ccc4o3)CC[C@H]2C)c1 [SUVOREXANT] | > 20 | > 20
14 | CN1C(C)(C)CC(OC(=O)CCC(=O)OC2CC(C)(C)N(C)C(C)(C)C2)CC1(C)C [SUXEMERID] | > 20 | > 20
15 | CCCCC1(COC(=O)CCC(=O)O)C(=O)N(c2ccccc2)N(c2ccccc2)C1=O [SUXIBUZONE] | > 20 | > 20
16 | COc1cc(C(=O)O)cc(OC)c1O [SYRINGIC ACID] | > 20 | > 20
17 | Nc1sc2c(c1C(=O)c1ccc(Cl)cc1)CCCC2 [T-62] | > 20 | > 20
18 | OC1CN(CCCOCCc2ccc3sccc3c2)C1 [T-817] | > 20 | > 20
19 | CC(=O)Nc1ccc(C(=O)Nc2ccccc2N)cc1 [TACEDINALINE] | > 20 | > 20
20 | c1ccc2c(c1)CCc1cccc3c1C2CN1CCCCC31 (configuration not stated) [TACLAMINE] | > 20 | > 20
21 | Nc1c2c(nc3ccccc13)CCCC2 [TACRINE] | > 20 | > 20

Row | SMILES | IC50 [µM] | IC50 (read-out: pIC50 (converted)) [µM]
22 | COc1cc(C)c2c(Oc3cccc(C(F)(F)F)c3)c(OC)cc(NC(C)CCCN)c2n1 (configuration not stated) [TAFENOQUINE] | > 20 | > 20
23 | Cc1ccc(/C=C/C(=O)NCCCCN2CCN(C(c3ccccc3)c3ccccc3)CC2)cn1 [TAGORIZINE] | > 20 | > 20
24 | CCc1nc(-c2cccc(C)c2)c(-c2ccnc(NC(=O)c3ccccc3)c2)s1 [TAK-715] | > 20 | > 20
25 | CC(C)[C@H](N)C(=O)N1CCC[C@H]1B(O)O [TALABOSTAT] | > 20 | > 20
26 | CN(C(=O)c1ccc(F)cc1C(F)(F)F)C1CCN(c2nnc(-c3ccnn3C)c3ccccc23)CC1 [TALADEGIB] | > 20 | > 20
27 | CC1(C)S[C@@H]2[C@H](NC(=O)[C@H](N)c3ccccc3)C(=O)N2[C@H]1C(=O)OC1OC(=O)c2ccccc21 (some centres not stated) [TALAMPICILLIN] | > 20 | > 20
28 | Cn1ncnc1[C@H]1c2n[nH]c(=O)c3cc(F)cc(c23)N[C@@H]1c1ccc(F)cc1 [TALAZOPARIB] | > 20 | > 20
29 | CC(C)(C)NCC(O)COc1ccc(NC(=O)NC2CCCCC2)cc1 (configuration not stated) [TALINOLOL] | > 20 | > 20
30 | C=CCN1CCc2nc(N)sc2CC1 [TALIPEXOLE] | > 20 | > 20
31 | C[C@@H]1CN(Cc2ccc(F)cc2)[C@@H](C)CN1C(=O)c1cc2c(C(=O)C(=O)N(C)C)cn(C)c2cc1Cl [TALMAPIMOD] | > 20 | > 20
32 | CC[C@H](NC(=O)c1c(O)c(-c2ccccc2)nc2ccccc12)c1ccccc1 [TALNETANT] | > 20 | > 20
33 | CNCCCC1(c2ccccc2)OC(C)(C)c2ccccc21 (configuration not stated) [TALOPRAM] | > 20 | > 20
34 | CN[C@@H]1CC[C@@H](c2ccccc2)c2ccccc21 [TAMETRALINE] | > 20 | > 20
35 | CC1(C)CCC(C)(C)c2cc(NC(=O)c3ccc(C(=O)O)cc3)ccc21 [TAMIBAROTENE] | > 20 | > 20
36 | CC/C(=C(\c1ccccc1)c1ccc(OCCN(C)C)cc1)c1ccccc1 [TAMOXIFEN] | > 20 | > 20
37 | CCOc1ccccc1OCCN[C@H](C)Cc1ccc(OC)c(S(N)(=O)=O)c1 [TAMSULOSIN] | > 20 | > 20
38 | O=C1[C@@H]2[C@H]3CC[C@H](C3)[C@@H]2C(=O)N1CCCCN1CCN(c2ncccn2)CC1 [TANDOSPIRONE] | > 20 | > 20
39 | O[C@H]1CC[C@H](Nc2ncc3nc(Nc4c(F)cc(F)cc4F)n([C@H]4CCOC4)c3n2)CC1 [TANZISERTIB] | > 20 | > 20
40 | CC[C@@H](c1cccc(O)c1)[C@@H](C)CN(C)C [TAPENTADOL] | > 20 | > 20
41 | C[C@H](NC(=O)C(C)(C)Oc1ccc(C(F)(F)F)cn1)[C@@H](Cc1ccc(Cl)cc1)c1cccc(C#N)c1 [TARANABANT] | > 20 | > 20
42 | C[C@@H](C(=O)O)c1ccc(-c2ccccc2)c(F)c1 [TARENFLURBIL] | > 20 | > 20

Row | SMILES | IC50 [µM] | IC50 (read-out: pIC50 (converted)) [µM]
43 | O=C(O)C(O)C(O)C(=O)O (configuration not stated) [TARTARIC ACID] | > 20 | > 20
44 | C#C[C@@]1(O)[C@@H](CO)O[C@@H](n2ccc(N)nc2=O)[C@@H]1O [TAS-106] | > 20 | > 20
45 | CCC(=O)NC[C@@H]1C[C@H]1c1cccc2c1CCO2 [TASIMELTEON] | > 20 | > 20
46 | c1cnc(SCc2cccnc2)nc1 [TASULDINE] | > 20 | > 20
47 | NCCS(=O)(=O)O [TAURINE] | > 20 | > 20
48 | C[C@H](CCC(=O)NCCS(=O)(=O)O)[C@H]1CC[C@H]2[C@@H]3[C@@H](O)C[C@@H]4C[C@H](O)CC[C@]4(C)[C@H]3CC[C@]12C [TAURURSODIOL] | > 20 | > 20
49 | OB1OCc2cc(F)ccc21 [TAVABOROLE] | > 20 | > 20
50 | CCOC(=O)c1ccc(C#Cc2ccc3c(c2)C(C)(C)CCS3)nc1 [TAZAROTENE] | > 20 | > 20
51 | CCN(c1cc(-c2ccc(CN3CCOCC3)cc2)cc(C(=O)NCc2c(C)cc(C)[nH]c2=O)c1C)C1CCOCC1 [TAZEMETOSTAT] | > 20 | > 20
52 | C[C@]1(Cn2ccnn2)[C@H](C(=O)O)N2C(=O)C[C@H]2S1(=O)=O [TAZOBACTAM] | > 20 | > 20
53 | [2H]C1([2H])[C@H]2C[C@@H](Oc3ccc(C(F)(F)F)cn3)[C@H](C2)N1C(=O)c1cccc(F)c1-c1ncccn1 [TEBIDEUTOREXANT] | > 20 | > 20
54 | Cn1nnc(-c2ccc(-c3ccc(N4C[C@H](COP(=O)(O)O)OC4=O)cc3F)cn2)n1 [TEDIZOLID PHOSPHATE] | > 20 | > 20
55 | O=c1[nH]c(=O)n(C2CCCO2)cc1F (configuration not stated) [TEGAFUR] | > 20 | > 20
56 | CCCCCNC(=N)N/N=C/c1c[nH]c2ccc(OC)cc12 [TEGASEROD] | > 20 | > 20
57 | CCc1nc2ccc(Cl)cn2c1C(=O)NCc1ccc(N2CCC(c3ccc(OC(F)(F)F)cc3)CC2)cc1 [TELACEBEC] | > 20 | > 20
58 | CNC(=O)c1cc(COc2nnc(Nc3ccc(Cl)cc3)c3ccoc23)ccn1 [TELATINIB] | > 20 | > 20
59 | O=C(N[C@@H]1CC[C@@H](c2cccc(F)c2F)CN(CC(F)(F)F)C1=O)N1CCC(n2c(=O)[nH]c3ncccc32)CC1 [TELCAGEPANT] | > 20 | > 20
60 | Cc1scc2c1N(C(=O)CN1CCN(C)CC1)c1ccccc1NC2=O [TELENZEPINE] | > 20 | > 20
61 | CCOC(=O)[C@@H](N)Cc1ccc(-c2cc(O[C@H](c3ccc(Cl)cc3-n3ccc(C)n3)C(F)(F)F)nc(N)n2)cc1 [TELOTRISTAT ETHYL] | > 20 | > 20
